Reference: publication PMC10272271, “MAM-2201 acute administration impairs motor, sensorimotor, prepulse inhibition, and memory functions in mice: a comparison with its analogue AM-2201” (Psychopharmacology, 2023)

Legend:
Type in all cases: in vivo, mouse
CD-1 male mice [1] = test: Overall tactile response (vibrissae, corneal, pinnae reflexes); conditions: AM 251 6 mg/kg i.p. before MAM-2201 6 mg/kg
Method: For the overall study 234 mice were used. In sensorimotor (visual object, visual placing, acoustic, and overall tactile responses) tests for MAM-2201, experiments for each treatment dose (vehicle or 5 different MAM-2201 doses, 0.01, 0.1, 1, 3, and 6 mg/kg) used 8 mice (total mice used: 48) and for MAM-2201 with AM-251 pretreatment, experiments for each dose regimen (vehicle + AM-251 or MAM-2201 + AM-251, 6 mg/kg) used 16 mice. In the analysis of spontaneous locomotion (open field test) for MAM-2201, experiments for each treatment regimen (vehicle or 4 different MAM-2201 doses, 0.01, 0.1, 1, and 6 mg/kg) used 10 mice (total mice used: 50). In the PPI test for MAM-2201, experiments for each treatment (vehicle or 3 different MAM-2201 doses, 0.01, 0.1, and 1 mg/kg) used 10 mice (total mice used: 40), while for MAM-2201 experiments in the Novel Object Recognition (NOR) test for each treatment regimen (vehicle or 3 different MAM-2201 and vehicle or 3 different AM-2201 doses, 0.01, 0.1, and 1 mg/kg) used 10 mice (total mice used: 80). In the present study the effect of MAM-2201 on sensorimotor responses was investigated using a battery of behavioral tests widely used in studies of “safety-pharmacology,” that we routinely adopted in our laboratory, for the preclinical characterization of new molecules in rodents (Ossato et al. [2015]; Vigolo et al. [2015]; Bilel et al. [2020]). The voluntary and involuntary motor responses of the animal to different visual, acoustic, and tactile stimuli were evaluated according to the procedure described in our previous studies (Ossato et al. [2015]; Bilel et al. [2020]). To reduce the number of animals used, mice were evaluated in functional observational tests carried out in a consecutive manner according to the following time scheme: observation of visual object responses (frontal and lateral view), acoustic response, tactile response (vibrissae, corneal and pinnae reflexes), and visual placing response. Sensorimotor tests were measured at 10, 30, 60, 120, 180, 240, and 300 min after injections for the evaluation of the visual object, acoustic and the tactile response, and at 15, 45, 75, 135, 195, 255, and 315 min after injections for the evaluation of visual placing response. Behavioral tests were conducted in a thermostated (temperature: 20–22 °C, humidity: 45–55%) and light (150 lx) controlled room with a background noise of 40 ± 4 dB. […] The behavior of mice was videotaped by a camera (B/W USB Camera day & night with varifocal lens; Ugo Basile, Italy) placed at the top or on one side of the box and analyzed off-line by a different trained operator. […] Sensory gating was evaluated by analysis of the pre-pulse inhibition (PPI) of the acoustic startle reflex as previously described (Bilel et al. [2020]). […]

CD-1 male mice [2] = test: Acoustic response test; conditions: AM 251 6 mg/kg i.p. before MAM-2201 6 mg/kg
Method: For the overall study 234 mice were used. In sensorimotor (visual object, visual placing, acoustic, and overall tactile responses) tests for MAM-2201, experiments for each treatment dose (vehicle or 5 different MAM-2201 doses, 0.01, 0.1, 1, 3, and 6 mg/kg) used 8 mice (total mice used: 48) and for MAM-2201 with AM-251 pretreatment, experiments for each dose regimen (vehicle + AM-251 or MAM-2201 + AM-251, 6 mg/kg) used 16 mice. In the analysis of spontaneous locomotion (open field test) for MAM-2201, experiments for each treatment regimen (vehicle or 4 different MAM-2201 doses, 0.01, 0.1, 1, and 6 mg/kg) used 10 mice (total mice used: 50). In the PPI test for MAM-2201, experiments for each treatment (vehicle or 3 different MAM-2201 doses, 0.01, 0.1, and 1 mg/kg) used 10 mice (total mice used: 40), while for MAM-2201 experiments in the Novel Object Recognition (NOR) test for each treatment regimen (vehicle or 3 different MAM-2201 and vehicle or 3 different AM-2201 doses, 0.01, 0.1, and 1 mg/kg) used 10 mice (total mice used: 80). In the present study the effect of MAM-2201 on sensorimotor responses was investigated using a battery of behavioral tests widely used in studies of “safety-pharmacology,” that we routinely adopted in our laboratory, for the preclinical characterization of new molecules in rodents (Ossato et al. [2015]; Vigolo et al. [2015]; Bilel et al. [2020]). The voluntary and involuntary motor responses of the animal to different visual, acoustic, and tactile stimuli were evaluated according to the procedure described in our previous studies (Ossato et al. [2015]; Bilel et al. [2020]). To reduce the number of animals used, mice were evaluated in functional observational tests carried out in a consecutive manner according to the following time scheme: observation of visual object responses (frontal and lateral view), acoustic response, tactile response (vibrissae, corneal and pinnae reflexes), and visual placing response. Sensorimotor tests were measured at 10, 30, 60, 120, 180, 240, and 300 min after injections for the evaluation of the visual object, acoustic and the tactile response, and at 15, 45, 75, 135, 195, 255, and 315 min after injections for the evaluation of visual placing response. Behavioral tests were conducted in a thermostated (temperature: 20–22 °C, humidity: 45–55%) and light (150 lx) controlled room with a background noise of 40 ± 4 dB. The apparatus for the visual object, acoustic and tactile sensorimotor tests consisted of an experimental chamber (350 × 350 × 350 mm) with black methacrylate walls and a transparent front door. During the week before the experiment, each mouse was placed in the box and handled (once a day) on every other day, i.e., 3 times, to get used to both the environment and the experimenter. To avoid olfactory cues, cages were carefully cleaned with a dilute (5%) ethanol solution and rinsed with water. All experiments were performed between 8:30 AM and 2:00 PM and conducted by trained observers working in pairs who were blinded to the treatment being tested (Ossato et al. [2015]). The behavior of mice was videotaped by a camera (B/W USB Camera day & night with varifocal lens; Ugo Basile, Italy) placed at the top or on one side of the box and analyzed off-line by a different trained operator. […] Sensory gating was evaluated by analysis of the pre-pulse inhibition (PPI) of the acoustic startle reflex as previously described (Bilel et al. [2020]). […]

CD-1 male mice [3] = test: Visual object response test; conditions: AM 251 6 mg/kg i.p. 20 min before MAM-2201 6 mg/kg
Method: For the overall study 234 mice were used. In sensorimotor (visual object, visual placing, acoustic, and overall tactile responses) tests for MAM-2201, experiments for each treatment dose (vehicle or 5 different MAM-2201 doses, 0.01, 0.1, 1, 3, and 6 mg/kg) used 8 mice (total mice used: 48) and for MAM-2201 with AM-251 pretreatment, experiments for each dose regimen (vehicle + AM-251 or MAM-2201 + AM-251, 6 mg/kg) used 16 mice. In the analysis of spontaneous locomotion (open field test) for MAM-2201, experiments for each treatment regimen (vehicle or 4 different MAM-2201 doses, 0.01, 0.1, 1, and 6 mg/kg) used 10 mice (total mice used: 50). In the PPI test for MAM-2201, experiments for each treatment (vehicle or 3 different MAM-2201 doses, 0.01, 0.1, and 1 mg/kg) used 10 mice (total mice used: 40), while for MAM-2201 experiments in the Novel Object Recognition (NOR) test for each treatment regimen (vehicle or 3 different MAM-2201 and vehicle or 3 different AM-2201 doses, 0.01, 0.1, and 1 mg/kg) used 10 mice (total mice used: 80). In the present study the effect of MAM-2201 on sensorimotor responses was investigated using a battery of behavioral tests widely used in studies of “safety-pharmacology,” that we routinely adopted in our laboratory, for the preclinical characterization of new molecules in rodents (Ossato et al. [2015]; Vigolo et al. [2015]; Bilel et al. [2020]). The voluntary and involuntary motor responses of the animal to different visual, acoustic, and tactile stimuli were evaluated according to the procedure described in our previous studies (Ossato et al. [2015]; Bilel et al. [2020]). To reduce the number of animals used, mice were evaluated in functional observational tests carried out in a consecutive manner according to the following time scheme: observation of visual object responses (frontal and lateral view), acoustic response, tactile response (vibrissae, corneal and pinnae reflexes), and visual placing response. Sensorimotor tests were measured at 10, 30, 60, 120, 180, 240, and 300 min after injections for the evaluation of the visual object, acoustic and the tactile response, and at 15, 45, 75, 135, 195, 255, and 315 min after injections for the evaluation of visual placing response. Behavioral tests were conducted in a thermostated (temperature: 20–22 °C, humidity: 45–55%) and light (150 lx) controlled room with a background noise of 40 ± 4 dB. The apparatus for the visual object, acoustic and tactile sensorimotor tests consisted of an experimental chamber (350 × 350 × 350 mm) with black methacrylate walls and a transparent front door. During the week before the experiment, each mouse was placed in the box and handled (once a day) on every other day, i.e., 3 times, to get used to both the environment and the experimenter. To avoid olfactory cues, cages were carefully cleaned with a dilute (5%) ethanol solution and rinsed with water. All experiments were performed between 8:30 AM and 2:00 PM and conducted by trained observers working in pairs who were blinded to the treatment being tested (Ossato et al. [2015]). The behavior of mice was videotaped by a camera (B/W USB Camera day & night with varifocal lens; Ugo Basile, Italy) placed at the top or on one side of the box and analyzed off-line by a different trained operator. Spontaneous locomotion studies were conducted in a separate set of animals through ANYMAZE test. Sensory gating was evaluated by analysis of the pre-pulse inhibition (PPI) of the acoustic startle reflex as previously described (Bilel et al. [2020]).
Visual object response test was used to evaluate the ability of the mouse to see an object approaching from the front (frontal view) or the side (lateral view) that typically induces the animal to shift or turn the head, bring the forelimbs in the position of “defense” or retreat from it. For the frontal visual response, a white horizontal bar was moved frontally to the mouse head and the maneuver was repeated 3 times. […]

CD-1 male mice [4] = test: Visual placing response test; conditions: AM 251 6 mg/kg i.p. before MAM-2201 6 mg/kg
Method: For the overall study 234 mice were used. In sensorimotor (visual object, visual placing, acoustic, and overall tactile responses) tests for MAM-2201, experiments for each treatment dose (vehicle or 5 different MAM-2201 doses, 0.01, 0.1, 1, 3, and 6 mg/kg) used 8 mice (total mice used: 48) and for MAM-2201 with AM-251 pretreatment, experiments for each dose regimen (vehicle + AM-251 or MAM-2201 + AM-251, 6 mg/kg) used 16 mice. In the analysis of spontaneous locomotion (open field test) for MAM-2201, experiments for each treatment regimen (vehicle or 4 different MAM-2201 doses, 0.01, 0.1, 1, and 6 mg/kg) used 10 mice (total mice used: 50). In the PPI test for MAM-2201, experiments for each treatment (vehicle or 3 different MAM-2201 doses, 0.01, 0.1, and 1 mg/kg) used 10 mice (total mice used: 40), while for MAM-2201 experiments in the Novel Object Recognition (NOR) test for each treatment regimen (vehicle or 3 different MAM-2201 and vehicle or 3 different AM-2201 doses, 0.01, 0.1, and 1 mg/kg) used 10 mice (total mice used: 80). […] The voluntary and involuntary motor responses of the animal to different visual, acoustic, and tactile stimuli were evaluated according to the procedure described in our previous studies (Ossato et al. [2015]; Bilel et al. [2020]). To reduce the number of animals used, mice were evaluated in functional observational tests carried out in a consecutive manner according to the following time scheme: observation of visual object responses (frontal and lateral view), acoustic response, tactile response (vibrissae, corneal and pinnae reflexes), and visual placing response. Sensorimotor tests were measured at 10, 30, 60, 120, 180, 240, and 300 min after injections for the evaluation of the visual object, acoustic and the tactile response, and at 15, 45, 75, 135, 195, 255, and 315 min after injections for the evaluation of visual placing response. […] Sensory gating was evaluated by analysis of the pre-pulse inhibition (PPI) of the acoustic startle reflex as previously described (Bilel et al. [2020]). […]

Compound: Cc1c(C(=O)NN2CCCCC2)nn(-c2ccc(Cl)cc2Cl)c1-c1ccc(I)cc1 [AM 251, 1-(2,4-Dichlorophenyl)-5-(4-iodophenyl)-4-methyl-N-(piperidin-1-yl)-1H-pyrazole-3-carboxamide, reference compound]
- effect of pre-treatment on MAM-2201-induced inhibition of overall tactile response (CD-1 male mice [1]): prevented
- effect of pre-treatment on MAM-2201-induced inhibition of acoustic response (CD-1 male mice [2]): prevented
- effect of pre-treatment on MAM-2201-induced inhibition of visual object response (CD-1 male mice [3]): significantly prevented
- effect of pre-treatment on MAM-2201-induced inhibition of visual placing response (CD-1 male mice [4]): prevented
